Reference: the NIST ThermoML archive (doi:10.1021/je300692s)
± gives the expanded uncertainty stated by the source.

Experiment: activity coefficient (dimensionless); of the first substance listed, at infinite dilution; xn = mol fraction of the nth substance listed
Settings: 101 kPa, Liquid, Chromatography, x1 = 0

Row | Compound | activity coefficient (322.9 K) | activity coefficient (333 K) | activity coefficient (343.1 K) | activity coefficient (322.6 K) | activity coefficient (332.5 K) | activity coefficient (342.8 K) | activity coefficient (323 K)
1 | c1ccccc1 [benzene] + CCCCCC[N+]1(C)CCCC1.O=S(=O)([N-]S(=O)(=O)C(F)(F)F)C(F)(F)F | 0.76 ± 0.08 | 0.77 ± 0.08 | 0.78 ± 0.08 | – | – | – | –
2 | CCCCO [butan-1-ol] + CCCCCCCCCC[N+]1(C)CCCC1.O=S(=O)([N-]S(=O)(=O)C(F)(F)F)C(F)(F)F | – | – | – | 2.2 ± 0.23 | 1.85 ± 0.19 | 1.64 ± 0.17 | –
3 | CCCCO [butan-1-ol] + CCCCCC[N+]1(C)CCCC1.O=S(=O)([N-]S(=O)(=O)C(F)(F)F)C(F)(F)F | 2.28 ± 0.24 | 2.86 ± 0.3 | 2.04 ± 0.21 | – | – | – | –
4 | CCC(C)=O [butanone] + CCCCCCCCCC[N+]1(C)CCCC1.O=S(=O)([N-]S(=O)(=O)C(F)(F)F)C(F)(F)F | – | – | – | 0.39 ± 0.05 | 0.37 ± 0.04 | 0.34 ± 0.04 | –
5 | CCC(C)=O [butanone] + CCCCCCCC[N+]1(C)CCCC1.O=S(=O)([N-]S(=O)(=O)C(F)(F)F)C(F)(F)F | – | 0.34 ± 0.04 | 0.31 ± 0.04 | – | – | – | 0.36 ± 0.04
6 | CCC(C)=O [butanone] + CCCCCC[N+]1(C)CCCC1.O=S(=O)([N-]S(=O)(=O)C(F)(F)F)C(F)(F)F | 0.42 ± 0.05 | 0.42 ± 0.05 | 0.39 ± 0.05 | – | – | – | –
7 | C1CCCCCC1 [cycloheptane] + CCCCCCCCCC[N+]1(C)CCCC1.O=S(=O)([N-]S(=O)(=O)C(F)(F)F)C(F)(F)F | – | – | – | 7 ± 0.74 | 9.72 ± 1 | 13.3 ± 1.4 | –
8 | C1CCCCCC1 [cycloheptane] + CCCCCCCC[N+]1(C)CCCC1.O=S(=O)([N-]S(=O)(=O)C(F)(F)F)C(F)(F)F | – | 12.1 ± 1.3 | 15.4 ± 1.6 | – | – | – | 8.62 ± 0.91
9 | C1CCCCCC1 [cycloheptane] + CCCCCC[N+]1(C)CCCC1.O=S(=O)([N-]S(=O)(=O)C(F)(F)F)C(F)(F)F | 14 ± 1.5 | 19 ± 2 | 25.1 ± 2.6 | – | – | – | –
10 | C1CCCCC1 [cyclohexane] + CCCCCCCCCC[N+]1(C)CCCC1.O=S(=O)([N-]S(=O)(=O)C(F)(F)F)C(F)(F)F | – | – | – | 2.81 ± 0.3 | 2.71 ± 0.28 | 2.62 ± 0.28 | –
11 | C1CCCCC1 [cyclohexane] + CCCCCCCC[N+]1(C)CCCC1.O=S(=O)([N-]S(=O)(=O)C(F)(F)F)C(F)(F)F | – | 3.31 ± 0.35 | 3.06 ± 0.32 | – | – | – | 3.45 ± 0.36
12 | C1CCCCC1 [cyclohexane] + CCCCCC[N+]1(C)CCCC1.O=S(=O)([N-]S(=O)(=O)C(F)(F)F)C(F)(F)F | 5.16 ± 0.54 | 4.64 ± 0.49 | 4.67 ± 0.49 | – | – | – | –
13 | CCCCCCCCCC [decane] + CCCCCCCCCC[N+]1(C)CCCC1.O=S(=O)([N-]S(=O)(=O)C(F)(F)F)C(F)(F)F | – | – | – | 9.42 ± 0.99 | 9.05 ± 0.95 | 8.7 ± 0.91 | –
14 | CCCCCCCCCC [decane] + CCCCCCCC[N+]1(C)CCCC1.O=S(=O)([N-]S(=O)(=O)C(F)(F)F)C(F)(F)F | – | 12.5 ± 0.75 | 11 ± 0.66 | – | – | – | 14.8 ± 0.88
15 | CCCCCCCCCC [decane] + CCCCCC[N+]1(C)CCCC1.O=S(=O)([N-]S(=O)(=O)C(F)(F)F)C(F)(F)F | 26 ± 2.7 | 19 ± 2 | 22.7 ± 2.4 | – | – | – | –
16 | ClCCl [dichloromethane] + CCCCCCCCCC[N+]1(C)CCCC1.O=S(=O)([N-]S(=O)(=O)C(F)(F)F)C(F)(F)F | – | – | – | 0.27 ± 0.04 | 0.3 ± 0.04 | 0.3 ± 0.04 | –
17 | ClCCl [dichloromethane] + CCCCCCCC[N+]1(C)CCCC1.O=S(=O)([N-]S(=O)(=O)C(F)(F)F)C(F)(F)F | – | 0.27 ± 0.04 | 0.28 ± 0.04 | – | – | – | 0.26 ± 0.04
18 | ClCCl [dichloromethane] + CCCCCC[N+]1(C)CCCC1.O=S(=O)([N-]S(=O)(=O)C(F)(F)F)C(F)(F)F | 0.31 ± 0.04 | 0.36 ± 0.04 | 0.35 ± 0.04 | – | – | – | –
19 | CCOCC [diethyl ether] + CCCCCCCCCC[N+]1(C)CCCC1.O=S(=O)([N-]S(=O)(=O)C(F)(F)F)C(F)(F)F | – | – | – | 1.27 ± 0.13 | 1.25 ± 0.13 | 1.25 ± 0.13 | –
20 | CCOCC [diethyl ether] + CCCCCCCC[N+]1(C)CCCC1.O=S(=O)([N-]S(=O)(=O)C(F)(F)F)C(F)(F)F | – | 1.34 ± 0.14 | 1.14 ± 0.12 | – | – | – | 1.34 ± 0.14
21 | CCOCC [diethyl ether] + CCCCCC[N+]1(C)CCCC1.O=S(=O)([N-]S(=O)(=O)C(F)(F)F)C(F)(F)F | 1.56 ± 0.16 | 1.76 ± 0.18 | 1.76 ± 0.18 | – | – | – | –
22 | CC(C)OC(C)C [diisopropyl ether] + CCCCCCCCCC[N+]1(C)CCCC1.O=S(=O)([N-]S(=O)(=O)C(F)(F)F)C(F)(F)F | – | – | – | 2.29 ± 0.24 | 2.28 ± 0.24 | 2.26 ± 0.24 | –
23 | CC(C)OC(C)C [diisopropyl ether] + CCCCCCCC[N+]1(C)CCCC1.O=S(=O)([N-]S(=O)(=O)C(F)(F)F)C(F)(F)F | – | 2.58 ± 0.27 | 2.26 ± 0.24 | – | – | – | 2.57 ± 0.27

Row | Compound | activity coefficient (322.9 K) | activity coefficient (333 K) | activity coefficient (343.1 K) | activity coefficient (322.6 K) | activity coefficient (332.5 K) | activity coefficient (342.8 K) | activity coefficient (323 K)
24 | CC(C)OC(C)C [diisopropyl ether] + CCCCCC[N+]1(C)CCCC1.O=S(=O)([N-]S(=O)(=O)C(F)(F)F)C(F)(F)F | 3.18 ± 0.33 | 3.56 ± 0.37 | 3.53 ± 0.37 | – | – | – | –
25 | CCO [ethanol] + CCCCCCCCCC[N+]1(C)CCCC1.O=S(=O)([N-]S(=O)(=O)C(F)(F)F)C(F)(F)F | – | – | – | 1.46 ± 0.15 | 1.34 ± 0.14 | 1.22 ± 0.13 | –
26 | CCO [ethanol] + CCCCCCCC[N+]1(C)CCCC1.O=S(=O)([N-]S(=O)(=O)C(F)(F)F)C(F)(F)F | – | 1.26 ± 0.13 | 0.98 ± 0.1 | – | – | – | 1.33 ± 0.14
27 | CCO [ethanol] + CCCCCC[N+]1(C)CCCC1.O=S(=O)([N-]S(=O)(=O)C(F)(F)F)C(F)(F)F | 1.41 ± 0.15 | 1.4 ± 0.14 | 1.31 ± 0.13 | – | – | – | –
28 | CCc1ccccc1 [ethylbenzene] + CCCCCCCCCC[N+]1(C)CCCC1.O=S(=O)([N-]S(=O)(=O)C(F)(F)F)C(F)(F)F | – | – | – | 1.01 ± 0.05 | 1.04 ± 0.06 | 1.06 ± 0.06 | –
29 | CCc1ccccc1 [ethylbenzene] + CCCCCCCC[N+]1(C)CCCC1.O=S(=O)([N-]S(=O)(=O)C(F)(F)F)C(F)(F)F | – | 0.98 ± 0.1 | 1.04 ± 0.11 | – | – | – | 1.03 ± 0.1
30 | CCc1ccccc1 [ethylbenzene] + CCCCCC[N+]1(C)CCCC1.O=S(=O)([N-]S(=O)(=O)C(F)(F)F)C(F)(F)F | 1.38 ± 0.14 | 1.43 ± 0.15 | 1.46 ± 0.15 | – | – | – | –
31 | CCCCCCC [heptane] + CCCCCCCCCC[N+]1(C)CCCC1.O=S(=O)([N-]S(=O)(=O)C(F)(F)F)C(F)(F)F | – | – | – | 4.91 ± 0.52 | 4.75 ± 0.5 | 4.62 ± 0.49 | –
32 | CCCCCCC [heptane] + CCCCCCCC[N+]1(C)CCCC1.O=S(=O)([N-]S(=O)(=O)C(F)(F)F)C(F)(F)F | – | 6.06 ± 0.64 | 5.13 ± 0.54 | – | – | – | 6.4 ± 0.67
33 | CCCCCCC [heptane] + CCCCCC[N+]1(C)CCCC1.O=S(=O)([N-]S(=O)(=O)C(F)(F)F)C(F)(F)F | 10.6 ± 1.1 | 9.43 ± 0.99 | 9.58 ± 1 | – | – | – | –
34 | C=CCCCC [hex-1-ene] + CCCCCCCCCC[N+]1(C)CCCC1.O=S(=O)([N-]S(=O)(=O)C(F)(F)F)C(F)(F)F | – | – | – | 2.68 ± 0.28 | 2.62 ± 0.28 | 2.57 ± 0.27 | –
35 | C=CCCCC [hex-1-ene] + CCCCCCCC[N+]1(C)CCCC1.O=S(=O)([N-]S(=O)(=O)C(F)(F)F)C(F)(F)F | – | 3.02 ± 0.32 | 2.58 ± 0.27 | – | – | – | 3.17 ± 0.33
36 | C=CCCCC [hex-1-ene] + CCCCCC[N+]1(C)CCCC1.O=S(=O)([N-]S(=O)(=O)C(F)(F)F)C(F)(F)F | 4.56 ± 0.48 | 4.63 ± 0.49 | 4.44 ± 0.47 | – | – | – | –
37 | CCCCCC [hexane] + CCCCCCCCCC[N+]1(C)CCCC1.O=S(=O)([N-]S(=O)(=O)C(F)(F)F)C(F)(F)F | – | – | – | 3.97 ± 0.42 | 3.78 ± 0.4 | 3.68 ± 0.39 | –
38 | CCCCCC [hexane] + CCCCCCCC[N+]1(C)CCCC1.O=S(=O)([N-]S(=O)(=O)C(F)(F)F)C(F)(F)F | – | 4.8 ± 0.5 | 4.05 ± 0.43 | – | – | – | 5.01 ± 0.53
39 | CCCCCC [hexane] + CCCCCC[N+]1(C)CCCC1.O=S(=O)([N-]S(=O)(=O)C(F)(F)F)C(F)(F)F | 7.74 ± 0.81 | 7.38 ± 0.78 | 7.11 ± 0.75 | – | – | – | –
40 | CO [methanol] + CCCCCCCCCC[N+]1(C)CCCC1.O=S(=O)([N-]S(=O)(=O)C(F)(F)F)C(F)(F)F | – | – | – | 1.61 ± 0.17 | 1.32 ± 0.14 | 1.36 ± 0.14 | –
41 | CO [methanol] + CCCCCCCC[N+]1(C)CCCC1.O=S(=O)([N-]S(=O)(=O)C(F)(F)F)C(F)(F)F | – | 1.09 ± 0.11 | 0.71 ± 0.07 | – | – | – | 0.97 ± 0.1
42 | CO [methanol] + CCCCCC[N+]1(C)CCCC1.O=S(=O)([N-]S(=O)(=O)C(F)(F)F)C(F)(F)F | 0.94 ± 0.1 | 1.77 ± 0.18 | 0.95 ± 0.1 | – | – | – | –
43 | CC1CCCCC1 [methylcyclohexane] + CCCCCCCCCC[N+]1(C)CCCC1.O=S(=O)([N-]S(=O)(=O)C(F)(F)F)C(F)(F)F | – | – | – | 3.38 ± 0.36 | 3.28 ± 0.34 | 3.15 ± 0.33 | –
44 | CC1CCCCC1 [methylcyclohexane] + CCCCCCCC[N+]1(C)CCCC1.O=S(=O)([N-]S(=O)(=O)C(F)(F)F)C(F)(F)F | – | 4.04 ± 0.42 | 3.9 ± 0.41 | – | – | – | 4.22 ± 0.44
45 | CC1CCCCC1 [methylcyclohexane] + CCCCCC[N+]1(C)CCCC1.O=S(=O)([N-]S(=O)(=O)C(F)(F)F)C(F)(F)F | 6.57 ± 0.69 | 6.07 ± 0.64 | 6.03 ± 0.63 | – | – | – | –
